From BindingDB's records for doi:10.1016/j.ejmech.2014.01.004 (Future University, 2014)

Target: T1, Dihydrofolate reductase (Bos taurus, UniProt P00376)
T1 sequence (P00376 whole entry): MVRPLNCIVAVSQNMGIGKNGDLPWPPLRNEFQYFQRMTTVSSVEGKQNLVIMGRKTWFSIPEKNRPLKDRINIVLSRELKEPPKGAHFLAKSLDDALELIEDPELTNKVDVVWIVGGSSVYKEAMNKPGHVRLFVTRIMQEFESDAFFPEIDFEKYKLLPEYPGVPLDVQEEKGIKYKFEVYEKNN
Assay: Inhibition of bovine liver DHFR measured for every 1 min of 10 mins

| IC50 [nM] | SMILES |
| --- | --- |
| 100 | Clc1cc2c(cc1Cl)N=C(c1ccc(Br)cc1)C1CCCC(=Cc3ccc(Br)cc3)C1=N2 (configuration not stated) |
| 100 | COc1ccc(C=C2CCCC3C2=Nc2cc(C)c(C)cc2N=C3c2ccc(OC)cc2)cc1 (configuration not stated) |
